Test results from patent US20090253789A1, “Preventive/Remedy for Arteriosclerotic Disease and Method of Evaluating Therapeutic Procedure” (Takeda Pharmaceutical Company Limited, priority 2006, published 2009).

Assays:
[1] = clinical test; cited from earlier work
atherosclerotic lesion [2] = details: pre-clinical tests; accompanied with reduction in plasma cholesterol level; cited from earlier work
[3] = Anti-atherosclerotic activity test in WHHL rabbit: plasma total cholesterol exposure amount; type: in vivo; details: for Plasma total cholesterol exposure amount during administration period: average ± standard error, control 6194 ± 511, no significant difference (Williams' test)
Method: (§1) Using 7-month-old WHHL rabbits, the compound X (3, 10 mg/kg/day) was orally administered once a day for 12 weeks and influence on atherosclerosis was examined. Before drug administration, aortic atherosclerosis was tested by intravascular ultrasound (IVUS), and WHHL rabbits were grouped based on the aortic atherosclerosis, plasma cholesterol level and sex.
(§2) Before initiation of administration, and 1, 2, 4, 6, 8, 10, 12 weeks from administration, blood samples were collected, a plasma total cholesterol level of each sample was measured using a biochemical automatic analysis apparatus and a plasma total cholesterol exposure amount during the administration period was obtained by a trapezoid formula. After administration, the thoracic aorta was removed, and a cholesterol ester content as an index of atherosclerosis was measured.

atherosclerotic lesion [4] = assay: Anti-atherosclerotic activity test in WHHL rabbit: cholesterol ester content of thoracic aorta; type: in vivo
Method: as §1, §2

ACAT = target: T1, ACAT (Oryctolagus cuniculus, UniProt A0A5F9CPP4); assay: Atherosclerotic lesion ACAT enzyme inhibition test (3-day oral administration, lesion homogenate, correction markers); type: in vivo, WHHL rabbit
T1 construct: to obtain a homogenate, which was used as an “atherosclerotic lesion sample” for a biochemical measurement; from tissue; host or cells: aortic atherosclerotic lesion tissue homogenate of WHHL rabbits dosed orally for 3 days
T1 sequence (A0A5F9CPP4 1-555): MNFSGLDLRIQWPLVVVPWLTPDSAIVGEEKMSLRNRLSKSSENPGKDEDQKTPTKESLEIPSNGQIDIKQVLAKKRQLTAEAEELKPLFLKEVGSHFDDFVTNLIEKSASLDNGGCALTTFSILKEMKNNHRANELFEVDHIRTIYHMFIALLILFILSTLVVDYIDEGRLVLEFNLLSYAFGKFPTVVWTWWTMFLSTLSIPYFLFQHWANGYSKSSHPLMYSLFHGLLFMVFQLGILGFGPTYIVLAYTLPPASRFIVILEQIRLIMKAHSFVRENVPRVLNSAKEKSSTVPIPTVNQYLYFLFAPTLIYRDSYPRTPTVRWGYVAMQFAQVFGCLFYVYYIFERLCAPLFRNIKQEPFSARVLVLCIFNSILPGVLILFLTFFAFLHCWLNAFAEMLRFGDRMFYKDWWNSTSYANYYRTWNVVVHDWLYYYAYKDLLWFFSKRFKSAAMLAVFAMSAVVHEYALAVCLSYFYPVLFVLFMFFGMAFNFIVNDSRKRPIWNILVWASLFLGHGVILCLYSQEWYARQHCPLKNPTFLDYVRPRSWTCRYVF
Text: Using a rabbit having an atherosclerotic lesion in the aorta due to rearing with a high cholesterol diet, or due to hereditary hyperlipemia, etc., an ACAT inhibitor or a medium was orally administered once a day for 3 days. About two hours after final administration, the rabbit was anesthetized and killed by exsanguination, and the aorta was removed, frozen and stored. After thawing the frozen-stored aorta, a tissue section of an atherosclerotic lesion residing site was corrected using a biopsy trephine. […]
An ACAT reaction was measured by mixing a reaction buffer (0.19 M Tris-HCl pH 7.5, 3 mM EDTA, cholesterol 0.2 mg/ml, BSA 3 mg/ml), the aforementioned “atherosclerotic lesion sample”, and a substrate solution ([3H]Oleoyl-CoA), reacting the mixture with stirring at 37° C. for 30 minutes, fractionating a lipid fraction by thin layer chromatography, and measuring radioactivity (DPM) incorporated into a cholesteryl ester fraction with a liquid scintillation counter. Radioactivity of a blank sample (STE buffer instead of the homogenate was added) was also measured, and a value obtained by subtracting radioactivity of the blank from radioactivity of each sample was adopted as the ACAT enzyme activity. […]

**Q.** For `CC(C)c1cc(C(C)C)c(CC(=O)NS(=O)(=O)Oc2c(C(C)C)cccc2C(C)C)c(C(C)C)c1` [Avasimibe], which anti-atherosclerotic activity [1] is on record?
**A.** no effect was observed

**Q.** And the “effect on blood lipid level” value [1]?
**A.** certain effect

**Q.** What about the “anti-atherosclerotic activity: cholesterol ester in an atherosclerotic lesion” value (atherosclerotic lesion [2]) of the same compound?
**A.** lowering a cholesterol ester in an atherosclerotic lesion

**Q.** What does the source list for “Monopotassium bis((2E)-3-{3-[7-chloro-3-(2-{[4-fluoro-2-(trifluoromethyl)phenyl]amino}-2-oxoethyl)-6-methyl-2-oxo-2H-chromen-4-yl]phenyl}acrylate) trihydrate [compound X]”?
**A.** Plasma total cholesterol exposure amount during administration period ([3]; 3 mg/kg/day orally for 12 weeks): 5356 ± 410 mg · week/dL; Plasma total cholesterol exposure amount during administration period ([3]; 10 mg/kg/day orally for 12 weeks): 4957 ± 490 mg · week/dL; effect on plasma total cholesterol exposure amount during the administration period (in words) ([3]; 3 and 10 mg/kg/day orally for 12 weeks): only a reduction tendency; anti-atherosclerotic activity by long-term treatment (atherosclerotic lesion [4]; 3 and 10 mg/kg, long-term treatment): clear anti-atherosclerotic activity; cholesterol ester content of the thoracic aorta (atherosclerotic lesion [4]; 3 and 10 mg/kg/day orally for 12 weeks (FIG. 10)): significantly reduced; inhibition of ACAT enzyme activity, LAL correction (ACAT; 3 mg/kg orally once a day for 3 days, vs control group): significant inhibition; inhibition of atherosclerotic lesion ACAT activity utilizing the correction marker (ACAT; 3 and 10 mg/kg, administration for 3 days): inhibited the atherosclerotic lesion ACAT activity of the WHHL rabbit dose-dependently
